Assays:
hSTING REF allele = target: T1, hSTING REF allele (Homo sapiens, UniProt Q86WV6); experiment: Differential scanning fluorometry (DSF) Tm shift with purified STING AA140-379; assay type: binding; settings: ligand 1 mM, 1 mg/ml STING AA140-379
T1 construct: DNA encoding amino acids 140-379 (amino acid numbering corresponding to Swiss Prot Q86WV6); 6xHIS-SUMO (with TEV site) (N, cleaved yes); made in house; host or cells: Rosetta2 (DE3) E. coli
Source text: (§1) DNA encoding amino acids 140-379 (amino acid numbering corresponding to Swiss Prot Q86WV6) was amplified from plasmids containing the full length sequence of human STING alleles via polymerase chain reaction with the following primers: forward […] (SEQ ID NO: 9) and reverse […] (SEQ ID NO: 10). STING variant alleles were assigned according to Yi, et al, (2013), PLoS One, 8(10), e77846 (DOI: 10.1371/journal.pone.0077846. PCR products were cloned into bacterial expression vector encoding a N-terminal hexa-histidine affinity tag (6×HIS) followed by a small ubiquitin-like modifier (SUMO) solubility sequence (Butt, et al, (2005) Protein expression and purification 43.1, 1-9) and tobacco etch virus protease cleavage site (TEV) using ligation independent cloning (Aslanidis, et al, (1990) Nucleic acids research, 18.20, 6069-6074).
(§2) Plasmids encoding 6×HIS-SUMO-TEV-STING amino acids 140-379 were transformed into Rosetta2 (DE3) E. coli cells (EMD Millipore) for protein expression. Cells were grown in lysogeny broth at 37° C. until a […] absorbance of 0.6 was reached. Cells were then transferred to 18° C. and protein expression was induced overnight by the addition of isopropyl β-D-1-thiogalactopyranoside to the media at a concentration of 0.25 mM. Cells were harvested by centrifugation at 6,000 times gravity for 10 minutes. Cell pellets were re-suspended on ice in a buffer containing 50 mM Tris hydrochloride (Tris-HCl) pH 7.5, 500 mM sodium chloride (NaCl), 20 mM imidazole, 10% glycerol, 1 mM tris(2-carboxyethyl)phosphine hydrochloride (TCEP) and protease inhibitor tablet (Pierce) (Buffer A). Cells were lysed using an S-450D sonifier (Emmerson industrial) on ice. Cell lysate was centrifuged at 15,000 times gravity for 30 minutes at 4° C. Soluble material was applied to nickel-nitrilotriacetic acid (Ni-NTA) coupled Sepharose CL-6B (Qiagen) for 1 hour with gentle rocking at 4° C. After transfer to a gravity flow poly-prep column (Bio-Rad), resin was washed extensively in buffer A. Protein was eluted from the column in a buffer containing 20 mM Tris-HCl pH 7.5, 150 mM NaCl, 300 mM imidazole, 10% glycerol and 0.5 mM TCEP. To remove the 6×HIS-SUMO tag eluted protein was mixed with TEV protease (Sigma) at a ratio of 1:250 (w:w) and dialyzed overnight against a buffer containing 20 mM Tris-HCl pH 7.5, 150 mM NaCl, 5 mM imidazole, 10% glycerol and 0.5 mM TCEP. TEV protease and 6×HIS-SUMO tags were depleted by the addition of Ni-NTA resin (Qiagen) to the sample, purified STING amino acids 140-379 was collected by removal of the resin using a poly-prep column STING AA140-379 was concentrated with a 10,000 Dalton molecular weight cutoff centrifuge concentrator (EMD Millipore) to a final concentration of approximately 10 mg/ml. Protein was aliquoted, flash frozen in liquid nitrogen and stored at −80° C. until use.
(§3) Differential scanning fluorometry (DSF) is a technique that measures the ability of ligands to bind to and stabilize purified proteins (Niesen, et al, (2007) Nature protocols 2.9, 2212-2221). The protein is heated in the presence of a dye that binds to and fluoresces in hydrophobic environments. The protein is thermally denatured by heating resulting in increased dye binding to the unfolded protein and fluorescence. The temperature midpoint (Tm) of a proteins denaturation is established by calculating the half maximal value of the denaturation curve. The temperature midpoint of the protein in the presence of a ligand is directly related to the affinity of the ligand for the protein and therefore its ability to stabilize the protein at higher temperatures.
(§4) DSF was performed in a 20 μL reaction comprising 20 mM Tris-HCl pH 7.5, 150 mM NaCl, 1:500 dilution of SYPRO Orange (Life Technologies), 1 mg/ml purified STING AA140-379 protein and ligand at a concentration of 1 mM. Wild type hSTING, HAQ allele hSTING and/or REF allele hSTING were used with scaffold molecules of the invention as listed in Table 2.

hSTING WT = target: T2, hSTING WT (Homo sapiens, UniProt Q86WV6, H232R); experiment: as above; assay type: binding; settings: ligand 1 mM, 1 mg/ml STING AA140-379
T2 construct: DNA encoding amino acids 140-379 (amino acid numbering corresponding to Swiss Prot Q86WV6); 6xHIS-SUMO (with TEV site) (N, cleaved yes); made in house; host or cells: Rosetta2 (DE3) E. coli
T2 sequence (Q86WV6 140-379 H232R): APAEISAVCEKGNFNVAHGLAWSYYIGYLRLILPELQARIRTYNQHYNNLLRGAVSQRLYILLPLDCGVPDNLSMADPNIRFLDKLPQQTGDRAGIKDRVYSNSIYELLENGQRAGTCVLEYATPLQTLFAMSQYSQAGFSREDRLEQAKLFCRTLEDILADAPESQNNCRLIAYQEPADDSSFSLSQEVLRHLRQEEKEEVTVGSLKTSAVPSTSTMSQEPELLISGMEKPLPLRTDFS
Source text: as §1, §2, §3, §4

T1 sequence (Q86WV6 140-379): as the sequence (Q86WV6 140-379 H232R) above, with R93H counted along it

SMILES	hSTING Tm Shift REF (hSTING REF allele)	hSTING Tm Shift WT (hSTING WT)
Nc1ccn([C@@H]2O[C@@H]3CO[P@@](=O)(S)O[C@H]4[C@@H](F)[C@H](n5cnc6c(N)ncnc65)O[C@@H]4CO[P@@](=O)(S)O[C@H]3[C@H]2F)c(=O)n1 [Compound 37, 4-amino-1-((2R,3R,3aR,5R,7aR,9R,10R,10aR,12R,14aR)-9-(6-amino-9H-purin-9-yl) 3,10-difluoro-5,12-dimercapto 5,12-dioxidooctahydro-2H,7H-difuro[3,2-d:3′,2′-j][1,3,7,9]tetraoxa[2,8]diphosphacyclododecin-2-yl)pyrimidin-2(1H)-one]	7.5 °C	8.2 °C
Nc1ccn([C@@H]2O[C@@H]3CO[P@](=O)(S)O[C@H]4[C@@H](F)[C@H](n5cnc6c(N)ncnc65)O[C@@H]4CO[P@@](=O)(S)O[C@H]3[C@H]2F)c(=O)n1 [Compound 37a, 4-amino-1-((2R,3R,3aR,5R,7aR,9R,10R, 10aR,12S,14aR)-9-(6-amino-9H-purin-9-yl)-3,10-difluoro-5,12-dimercapto-5,12-dioxidooctahydro-2H,7H-difuro[3,2-d: 3′,2′-j][1,3,7,9]tetraoxa[2,8]diphosphacyclododecin-2-yl)pyrimidin-2(1H)-one]	5.3 °C	5.6 °C
Nc1ncnc2c1ncn2[C@H]1O[C@H]2CO[P@@](=O)(S)O[C@@H]3[C@H](O)[C@@H](n4cnc5c(N)ncnc54)O[C@H]3CO[P@@](=O)(S)O[C@@H]2[C@@H]1O [Compound 48b, triethylammonium (2S,3S,3R,5R,7aS,9S,10S,10aR,12R,14aS)-2,9-bis(6-amino-9H-purin-9-yl)-3,10-dihydroxyoctahydro-2H,7H-difuro[3,2-d: 3′,2′-j][1,3,7,9]tetraoxa[2,8]diphosphacyclododecine-5,12-bis(thiolate) 5,12-dioxide]	6.4 °C	3.0 °C
Nc1nc(N)c2ncn([C@@H]3O[C@@H]4CO[P@@](=O)(S)O[C@H]5[C@@H](O)[C@H](n6cnc7c(N)nc(N)nc76)O[C@@H]5CO[P@](=O)(S)O[C@H]4[C@H]3O)c2n1 [Compound 23a, (2R,3R,3aS,5R,7aR,9R,10R,10aS,12S,14aR)-2,9-bis(2,6-diamino-9H-purin-9-yl)-3,10-dihydroxy-5,12-dimercaptooctahydro-2H,7H-difuro[3,2-d:3′,2′-j][1,3,7,9]tetraoxa[2,8]diphosphacyclododecine 5,12-dioxide]	3.1 °C	10.0 °C
CC(C)C(=O)Nc1nc2c(ncn2[C@@H]2O[C@@H]3CO[P@@](=O)(S)O[C@H]4[C@@H](F)[C@H](n5cnc6c(=O)[nH]c(NC(=O)C(C)C)nc65)O[C@@H]4CO[P@@](=O)(S)O[C@H]3[C@H]2F)c(=O)[nH]1 [Compound 32, N,N′-(((2R,3R,3aR,5R,7aR,9R,10R,10aR,12R,14aR)-3,10-difluoro-5,12-dimercapto-5,12-dioxidooctahydro-2H, 7H-difuro[3,2-d:3′,2′-j][1,3,7,9]tetraoxa[2,8]diphosphacyclododecine-2,9-diyl)bis(6-oxo-6,9-dihydro-1H-purine-9,2-diyl))bis(2-methylpropanamide)]	10.5 °C	10.7 °C
Nc1ncnc2c1ncn2[C@H]1O[C@H]2CO[P@](=O)(S)O[C@@H]3[C@H](O)[C@@H](n4cnc5c(N)ncnc54)O[C@H]3CO[P@](=O)(S)O[C@@H]2[C@@H]1O [Compound 48, (2S,3S,3aR,5S,7aS,9S,10S,10aR,12S,14aS)-2,9-bis(6-amino-9H-purin-9-yl)-3,10-dihydroxy-5,12-dimercaptooctahydro-2H,7H-difuro[3,2-d:3′,2′-j][1,3,7,9]tetraoxa[2,8]diphosphacyclododecine 5,12-dioxide]	2.3 °C	2.0 °C
CC(C)(C)[Si](C)(C)O[C@H]1[C@H]2O[P@@](=O)(S)OC[C@H]3O[C@@H](n4cnc5c(N)ncnc54)[C@H](F)[C@@H]3O[P@](=O)(S)OC[C@H]1O[C@H]2n1cnc2c(N)ncnc21 [Compound 6a, dithio-[SP, RP]-cyclic-[3′OTBS-A(2′,5′)p-2′F-A(3′,5′)p]]	4.8 °C	9.0 °C
Nc1nc(N)c2ncn([C@@H]3O[C@@H]4CO[P@@](=O)(S)O[C@H]5[C@@H](O)[C@H](n6cnc7c(N)nc(N)nc76)O[C@@H]5CO[P@@](=O)(S)O[C@H]4[C@H]3O)c2n1 [Compound 23, (2R,3R,3aS,5R,7aR,9R,10R,10aS,12R,14aR)-2,9-bis(2,6-diamino-9H-purin-9-yl)-3,10-dihydroxy-5,12-dimercaptooctahydro-2H,7H-difuro[3,2-d:3′,2′-j][1,3,7,9]tetraoxa[2,8]diphosphacyclododecine 5,12-dioxide]	8.3 °C	12.2 °C
Nc1ncnc2c1ncn2[C@H]1O[C@H]2CO[P@@](=O)(S)O[C@@H]3[C@H](O)[C@@H](n4cnc5c(N)ncnc54)O[C@H]3CO[P@](=O)(S)O[C@@H]2[C@@H]1O [Compound 48a, Triethylammonium (2S,3S,3aR,5R,7aS,9S,10S,10aR,12S,14aS)-2,9-bis(6-amino-9H-purin-9-yl)-3,10-dihydroxyoctahydro-2H, 7H-difuro[3,2-d: 3′,2′-j][1,3,7,9]tetraoxa[2,8]diphosphacyclododecine-5,12-bis(thiolate) 5,12-dioxide]	6.3 °C	2.9 °C

— US20180369268A1, “METHODS FOR IDENTIFYING INHIBITORS OF "STIMULATOR OF INTERFERON GENE"- DEPENDENT INTERFERON PRODUCTION” (ADURO BIOTECH, INC., priority 2015, published 2018)
